Values after ≈ are worked out from the molar mass of the structure shown. Values joined by “and” are separate entries in the source; they are usually repeats but may differ in a detail not shown here. Identical values can stand only once. “Also recorded” adds a separate entry of the source. Like-named read-outs stand apart in the source and are kept apart here.
Legend:
[1] = tested on: advanced colon adenocarcinoma C38; assay: In vivo antitumor activity against advanced stage colon adenocarcinoma C38; design: species or system B6D2F1 female mice; settings: for T-C: tumor to reach 1000 mg
Method: (§1) In vivo schedule of administration and antitumor efficacy studies were carried out using a preclinical standard formulation of Product of formula Ia in ethanol: polysorbate 80 (50:50, v/v). After dilution, the final concentration was 5 % ethanol, 5 % polysorbate, 90 % glucose-5 % in water.
(§2) Product of formula Ia was administered by the intravenous route (i.v.). The experiments and data analyses were done according to standard protocols.
(§3) In cases of high antitumor activity, the two following end points were also used: • tumor growth delay, T-C, where T and C are the median times in days required for the treatment group and the control group tumors to reach a predetermined size (750 to 1500 mg). • log cell kill, which is the logarithm of the total number of cells killed by treatment.
For advanced stage tumors, regressions can be either partial (more than 50 % reduction in tumor mass) or complete. Complete regressions are included in the partial regressions.
(§4) Toxicity was based on drug deaths (≥ 10 %) or a weight loss nadir > 20 %. Docetaxel was used for comparison trials when needed.
Product of formula Ia was administered i.v. to mice bearing 200 to 400 mg of tumor. […] In comparison, docetaxel at the HNTD produced only 40 % partial regressions in the same trial.

P388/TXT = settings: IC50 resistant / IC50 sensitive cells, 4 days of continuous exposure
Method: (§5) The resistance factor was calculated by dividing the IC50 value obtained on resistant cells by the IC50 value obtained on sensitive cells.

P388/VCR = settings: IC50 resistant / IC50 sensitive cells, 4 days of continuous exposure
Method: as §5

HL60/TAX = settings: IC50 resistant / IC50 sensitive cells, 4 days of continuous exposure
Method: as §5

colon adenocarcinoma C51 = assay: In vivo antitumor activity against colon adenocarcinoma C51; design: species or system BALB/c female mice; settings: for T-C: tumor to reach 750 mg
Method: as §1, §2
The activity end points used to assess subcutaneously implanted solid tumors were: • tumor growth inhibition, T/C, where T and C are the median tumor weights in mg of the treated and the control groups, respectively. […] A T/C < 10 %, ++, is considered as a high antitumor activity level which justifies further development (DN-2 level).
as §3, §4
Product of formula Ia was administered i.v. on day 4, 6, 8. […] The dosage below yielded a 2.2 log cell kill.

KB V1 = settings: IC50 resistant / IC50 sensitive cells, 4 days of continuous exposure
Method: as §5

P388/CPT5 cell line = settings: P388/CPT5, acquired resistance to camptothecin, no P-glycoprotein
Method: as §5

P388/DOX = settings: IC50 on resistant cells divided by IC50 on sensitive cells, 4 days of continuous exposure
Method: as §5

Calc18/TXT = settings: IC50 resistant / IC50 sensitive cells, 4 days of continuous exposure
Method: as §5

[2] = tested on: human colon adenocarcinoma CaCo-2 cell line (ATCC HTB37); assay: In vitro growth inhibition on CaCo-2 cell line (neutral red); type: cell-based
Method: The methodology was used, i.e., 96 well plates, time of contact of the drugs (96 hours) and neutral red coloration of viable cell. Results expressed as IC50, were summarized in the next table.

[3] = 7.7 mg/kg per injection i.v., days 14,17,20
[4] = 12.4 mg/kg per injection i.v., days 14,17,20
[5] = 20.0 mg/kg per injection i.v., days 14,17,20
[6] = 32.2 mg/kg per injection i.v., days 14,17,20
[7] = 5.8 mg/kg per injection i.v., days 4,6,8
[8] = 9.3 mg/kg per injection i.v., days 4,6,8
[9] = 15.0 mg/kg per injection i.v., days 4,6,8
[10] = 24.2 mg/kg per injection i.v., days 4,6,8

Compound	Comments [1, 3]	Complete regressions [1, 3]	log cell kill total [1, 3]	T-C [1, 3] [days]	Comments [1, 4]	Complete regressions [1, 4]	Comments [1, 5]	Complete regressions [1, 5]	Comments [1, 6]	Resistance factor (P388/TXT)	Resistance factor (P388/VCR)	Resistance factor (HL60/TAX)	Comments (colon adenocarcinoma C51; [7])	T/C in % day 18 (colon adenocarcinoma C51; [7]) [%]	log cell kill total (colon adenocarcinoma C51; [7])	T-C (colon adenocarcinoma C51; [7]) [days]	Comments (colon adenocarcinoma C51; [8])	T/C in % day 18 (colon adenocarcinoma C51; [8]) [%]	log cell kill total (colon adenocarcinoma C51; [8])	Resistance factor (P388/CPT5 cell line)	other results
4α-acetoxy-2α-benzoyloxy-5β,20-epoxy-1β-hydroxy-7β,10β-dimethoxy-9-oxo-11-taxen-13α-yl (2R,3S)-3 tert-butoxycarbonylamino-2-hydroxy-3-phenylpropionate [Product of formula Ia]	Active	2/5	2.7	25.0	Highly active	the same number of complete regressions and 5/5	HNTD highly active	5/5	Toxic	1.8	1.8	2.5	Active	0	2.2	21.9	highly active; also recorded: HNTD active	0	2.6	4.8	TFS = tumor free survivors observed on day 139 [1, 4]: 4/5; tumor free survivors ([1]; 12.4 mg/kg/injection i.v.): 80%; TFS = tumor free survivors observed on day 139 [1, 5]: all mice being tumor free survivors and 5/5; DD = drug death [1, 6]: 1/5; HNTD = highest nontoxic dose ([1]; i.v., mice bearing 200 to 400 mg of tumor): 20 mg/kg/injection; T-C (colon adenocarcinoma C51; [8]): 25.8 days; Comments (colon adenocarcinoma C51; [9]): Toxic; DD = drug death (colon adenocarcinoma C51; [9]): 1/5; Comments (colon adenocarcinoma C51; [10]): Toxic; DD = drug death (colon adenocarcinoma C51; [10]): 5/5; HNTD = highest nontoxic dose (colon adenocarcinoma C51; i.v. on day 4, 6, 8, C51-bearing mice): 9.3 mg/kg/injection; Resistance factor (KB V1): 7.6; Resistance factor (P388/DOX): 10.0; Resistance factor (P388/DOX; listed as product of formula Ia): 10; Resistance factor (Calc18/TXT): 4.3
CC(=O)O[C@@]12CO[C@@H]1C[C@H](O)[C@@]1(C)C(=O)[C@H](O)C3=C(C)[C@@H](OC(=O)[C@H](O)[C@@H](NC(=O)OC(C)(C)C)c4ccccc4)C[C@@](O)([C@@H](OC(=O)c4ccccc4)[C@H]21)C3(C)C [Docetaxel]	Inactive	0/5	0.3	2.5	Marginal activity	0/5	HNTD highly active	0/5	Toxic	4.8	5.8	8.1	Active	4	0.9	8.9	Active	0	2.2	10.5	log cell kill total [1, 4]: 0.7; T-C [1, 4]: 6.1 days; log cell kill total [1, 5]: 3.1; T-C [1, 5]: 29.1 days; bwl = body weight loss [1, 6]: 20.6%; partial regressions ([1]; at the HNTD, partial = more than 50 % reduction in tumor mass): 40%; T-C (colon adenocarcinoma C51; [8]): 22.4 days; Comments (colon adenocarcinoma C51; [9]): HNTD highly active; T/C in % day 18 (colon adenocarcinoma C51; [9]): 0%; log cell kill total (colon adenocarcinoma C51; [9]): 3.1; T-C (colon adenocarcinoma C51; [9]): 31.1 days; Comments (colon adenocarcinoma C51; [10]): Toxic; bwl = body weight loss (colon adenocarcinoma C51; [10]): 22.8%; Resistance factor (KB V1): 59.0; Resistance factor (KB V1; listed as docetaxel): 59; Resistance factor (P388/DOX): 50.7; Resistance factor (P388/DOX; listed as docetaxel): 50; Resistance factor (Calc18/TXT): 23.5; IC50 ([2]; Homo sapiens, 96 well plates, 96 hours contact, neutral red): 0.108 ± 0.017 µg/mL (≈ 0.134 µM); IC50 on CaCo-2 cells relative to Product of formula Ia ([2]; IC50 docetaxel versus IC50 Product of formula Ia): 4.9 times
CC[C@@]1(O)C(=O)OCc2c1cc1n(c2=O)Cc2cc3ccccc3nc2-1 [camptothecin]																				286	

— patent publication EP0982028A1, “New use of taxoid derivatives” (RHONE-POULENC RORER S.A., priority 1998, dated 2000)
